Experimental findings from the kinase profiling compilation of Christmann-Franck et al. (2016) are described below.

Each structure is given as a SMILES string.

What is called residual activity is the signal under treatment as a percentage of the control signal.

The first assay deals with ABL2 (human) (UniProt P42684). Put plainly: radiometric filter-binding kinase assay, Kinase HotSpot. The following applies: compound 0.5 µM; ATP 10 µM.
ABL2 (human), sequence (P42684 whole entry, looked up): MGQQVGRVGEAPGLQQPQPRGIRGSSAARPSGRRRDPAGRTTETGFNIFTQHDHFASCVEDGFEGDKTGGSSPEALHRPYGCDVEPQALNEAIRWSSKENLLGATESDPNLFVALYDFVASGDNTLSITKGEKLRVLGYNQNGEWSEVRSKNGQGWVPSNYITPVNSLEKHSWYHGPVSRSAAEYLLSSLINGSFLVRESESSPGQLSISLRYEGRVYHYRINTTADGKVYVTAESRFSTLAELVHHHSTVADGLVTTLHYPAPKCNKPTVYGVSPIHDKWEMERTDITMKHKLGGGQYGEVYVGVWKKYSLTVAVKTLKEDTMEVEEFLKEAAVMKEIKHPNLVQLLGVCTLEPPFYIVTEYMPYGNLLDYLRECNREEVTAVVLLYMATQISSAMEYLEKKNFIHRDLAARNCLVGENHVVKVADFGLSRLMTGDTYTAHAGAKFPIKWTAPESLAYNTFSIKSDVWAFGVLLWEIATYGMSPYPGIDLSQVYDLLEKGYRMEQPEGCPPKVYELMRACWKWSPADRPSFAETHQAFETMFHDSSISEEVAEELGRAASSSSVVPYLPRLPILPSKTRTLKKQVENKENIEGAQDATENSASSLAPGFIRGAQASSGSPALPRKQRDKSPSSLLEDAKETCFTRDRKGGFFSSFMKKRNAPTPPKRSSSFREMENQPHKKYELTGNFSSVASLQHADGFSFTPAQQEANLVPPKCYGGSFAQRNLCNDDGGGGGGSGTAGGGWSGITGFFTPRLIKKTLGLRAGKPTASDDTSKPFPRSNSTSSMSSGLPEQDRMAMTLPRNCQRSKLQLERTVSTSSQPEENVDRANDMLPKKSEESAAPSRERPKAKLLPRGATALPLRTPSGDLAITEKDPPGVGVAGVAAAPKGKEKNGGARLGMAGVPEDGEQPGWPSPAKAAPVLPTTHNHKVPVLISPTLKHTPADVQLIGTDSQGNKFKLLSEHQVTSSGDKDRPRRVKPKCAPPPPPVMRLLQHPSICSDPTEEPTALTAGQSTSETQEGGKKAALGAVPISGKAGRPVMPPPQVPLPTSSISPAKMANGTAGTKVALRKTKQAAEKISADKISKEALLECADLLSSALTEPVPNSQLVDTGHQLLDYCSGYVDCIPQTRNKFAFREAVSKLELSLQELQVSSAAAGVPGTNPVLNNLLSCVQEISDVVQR
Take `Cc1[nH]c(/C=C2\C(=O)Nc3ccc(S(=O)(=O)N(C)c4cccc(Cl)c4)cc32)c(C)c1C(=O)N1CCN(C)CC1`: the residual activity was determined as 73.2%.
Still for that read-out and setting: the value for `CNc1cc2c(Nc3cccc(Br)c3)ncnc2cn1` was 84.8%; that for `Oc1cccc(-c2nc(N3CCOCC3)c3oc4ncccc4c3n2)c1` was 94.9%.

Another assay concerns the target ACVR1 (human) (UniProt Q04771). Described as above. The following applies: compound 0.5 µM; ATP 10 µM.
For the compound `Cc1[nH]c(/C=C2\C(=O)Nc3ccc(S(=O)(=O)N(C)c4cccc(Cl)c4)cc32)c(C)c1C(=O)N1CCN(C)CC1`, the residual activity came out at 96.8%.
The same measure, in the same setting: the value for `CNc1cc2c(Nc3cccc(Br)c3)ncnc2cn1` was 104%.
`Oc1cccc(-c2nc(N3CCOCC3)c3oc4ncccc4c3n2)c1`: the residual activity was 105%.

For the next assay, the target named is BRSK2 (human) (UniProt Q8IWQ3). The description is as above. The following applies: compound 0.5 µM; ATP 10 µM.
As to `Cc1[nH]c(/C=C2\C(=O)Nc3ccc(S(=O)(=O)N(C)c4cccc(Cl)c4)cc32)c(C)c1C(=O)N1CCN(C)CC1`, the residual activity was determined as 89%.
Take `CNc1cc2c(Nc3cccc(Br)c3)ncnc2cn1`: the residual activity is 90.9%.
Same read-out and setting: the value for `Oc1cccc(-c2nc(N3CCOCC3)c3oc4ncccc4c3n2)c1` was 97.1%.

The target in a further assay is CDC42BPA (human) (UniProt Q5VT25). The description is as above. The following applies: compound 0.5 µM; ATP 10 µM.
CDC42BPA (human), sequence (Q5VT25 whole entry, looked up): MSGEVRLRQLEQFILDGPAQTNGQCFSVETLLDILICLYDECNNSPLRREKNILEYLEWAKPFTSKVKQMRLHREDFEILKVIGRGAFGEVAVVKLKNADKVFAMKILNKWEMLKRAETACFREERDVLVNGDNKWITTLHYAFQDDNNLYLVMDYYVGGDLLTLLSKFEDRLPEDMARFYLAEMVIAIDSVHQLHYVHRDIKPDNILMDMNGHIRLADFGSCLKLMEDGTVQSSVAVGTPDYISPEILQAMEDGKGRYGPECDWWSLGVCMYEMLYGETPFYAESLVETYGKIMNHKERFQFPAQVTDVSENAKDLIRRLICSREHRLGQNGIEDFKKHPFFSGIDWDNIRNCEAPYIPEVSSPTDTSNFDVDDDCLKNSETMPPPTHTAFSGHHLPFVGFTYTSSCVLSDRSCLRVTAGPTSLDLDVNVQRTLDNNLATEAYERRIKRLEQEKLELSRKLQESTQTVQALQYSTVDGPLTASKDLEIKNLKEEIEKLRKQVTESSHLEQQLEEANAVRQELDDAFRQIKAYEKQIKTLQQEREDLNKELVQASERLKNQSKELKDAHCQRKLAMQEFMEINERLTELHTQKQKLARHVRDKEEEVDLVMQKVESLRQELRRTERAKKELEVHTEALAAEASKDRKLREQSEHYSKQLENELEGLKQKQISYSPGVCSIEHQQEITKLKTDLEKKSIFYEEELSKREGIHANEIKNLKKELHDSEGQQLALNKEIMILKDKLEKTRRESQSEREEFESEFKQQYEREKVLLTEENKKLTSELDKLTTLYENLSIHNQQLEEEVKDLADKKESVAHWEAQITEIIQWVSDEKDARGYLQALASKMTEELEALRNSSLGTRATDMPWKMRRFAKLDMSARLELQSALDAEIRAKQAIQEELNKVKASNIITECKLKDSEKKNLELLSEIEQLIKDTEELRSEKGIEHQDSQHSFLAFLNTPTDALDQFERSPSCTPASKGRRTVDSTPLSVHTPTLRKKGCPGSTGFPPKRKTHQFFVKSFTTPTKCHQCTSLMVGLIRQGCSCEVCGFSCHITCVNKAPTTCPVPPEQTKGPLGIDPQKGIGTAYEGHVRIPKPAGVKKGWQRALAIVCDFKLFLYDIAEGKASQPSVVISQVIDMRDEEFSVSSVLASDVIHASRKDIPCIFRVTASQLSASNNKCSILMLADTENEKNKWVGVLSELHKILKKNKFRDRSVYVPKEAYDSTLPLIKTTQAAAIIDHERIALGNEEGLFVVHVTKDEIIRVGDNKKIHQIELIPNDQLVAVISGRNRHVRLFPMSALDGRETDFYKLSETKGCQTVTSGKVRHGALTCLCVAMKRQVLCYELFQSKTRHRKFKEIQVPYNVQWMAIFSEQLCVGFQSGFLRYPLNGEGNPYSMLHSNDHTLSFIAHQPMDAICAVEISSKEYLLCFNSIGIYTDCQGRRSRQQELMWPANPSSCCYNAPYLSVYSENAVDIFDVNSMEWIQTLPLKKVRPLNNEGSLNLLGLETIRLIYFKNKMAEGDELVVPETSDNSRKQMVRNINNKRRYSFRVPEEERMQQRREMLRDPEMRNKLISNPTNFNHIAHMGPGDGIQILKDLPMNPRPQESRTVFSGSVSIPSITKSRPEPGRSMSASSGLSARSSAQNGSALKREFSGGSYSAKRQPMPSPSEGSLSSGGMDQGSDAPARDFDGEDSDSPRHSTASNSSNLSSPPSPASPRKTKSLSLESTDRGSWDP
With `Cc1[nH]c(/C=C2\C(=O)Nc3ccc(S(=O)(=O)N(C)c4cccc(Cl)c4)cc32)c(C)c1C(=O)N1CCN(C)CC1`, the residual activity stood at 105%.
Consider `CNc1cc2c(Nc3cccc(Br)c3)ncnc2cn1`, for which the residual activity is 95.2%.
Still for that read-out and setting: the same measure for `Oc1cccc(-c2nc(N3CCOCC3)c3oc4ncccc4c3n2)c1`: 94.5%.

The next assay addresses CDK5 CDK5R1 p35 (human) (UniProt Q00535+Q15078). The assay is described as above. The following applies: compound 0.5 µM; ATP 10 µM.
With `Cc1[nH]c(/C=C2\C(=O)Nc3ccc(S(=O)(=O)N(C)c4cccc(Cl)c4)cc32)c(C)c1C(=O)N1CCN(C)CC1`, the residual activity amounted to 95.8%.
Consider `CNc1cc2c(Nc3cccc(Br)c3)ncnc2cn1`, for which the residual activity turned out to be 100%.
On the same count and under the same terms, the same measure for `Oc1cccc(-c2nc(N3CCOCC3)c3oc4ncccc4c3n2)c1`: 101%.

In another assay the target is CDK9 CCNK (human) (UniProt O75909+P50750). The assay is described as above. The following applies: compound 0.5 µM; ATP 10 µM.
In the case of `Cc1[nH]c(/C=C2\C(=O)Nc3ccc(S(=O)(=O)N(C)c4cccc(Cl)c4)cc32)c(C)c1C(=O)N1CCN(C)CC1`, the residual activity worked out at 90.2%.
Same read-out and setting: the same measure for `CNc1cc2c(Nc3cccc(Br)c3)ncnc2cn1`: 105%.
For `Oc1cccc(-c2nc(N3CCOCC3)c3oc4ncccc4c3n2)c1`, the residual activity worked out at 96%.

The target in another assay is CSK (human) (UniProt P41240). The assay is described as above. The following applies: compound 0.5 µM; ATP 10 µM.
Take `Cc1[nH]c(/C=C2\C(=O)Nc3ccc(S(=O)(=O)N(C)c4cccc(Cl)c4)cc32)c(C)c1C(=O)N1CCN(C)CC1`: the residual activity was found to be 78.2%.
On the same count and under the same terms, the same measure for `CNc1cc2c(Nc3cccc(Br)c3)ncnc2cn1`: 82%.
With `Oc1cccc(-c2nc(N3CCOCC3)c3oc4ncccc4c3n2)c1`, the residual activity stood at 88.3%.

The target of another assay is CSNK1D (human) (UniProt P48730). The description is as above. The following applies: compound 0.5 µM; ATP 10 µM.
Consider `Cc1[nH]c(/C=C2\C(=O)Nc3ccc(S(=O)(=O)N(C)c4cccc(Cl)c4)cc32)c(C)c1C(=O)N1CCN(C)CC1`, for which the residual activity turned out to be 83.5%.
The same measure, in the same setting: the same measure for `CNc1cc2c(Nc3cccc(Br)c3)ncnc2cn1`: 98.7%; for `Oc1cccc(-c2nc(N3CCOCC3)c3oc4ncccc4c3n2)c1`: 91.3%.

In another assay the target is DSTYK (human) (UniProt Q6XUX3). The assay is described as above. The following applies: compound 0.5 µM; ATP 10 µM.
With `Cc1[nH]c(/C=C2\C(=O)Nc3ccc(S(=O)(=O)N(C)c4cccc(Cl)c4)cc32)c(C)c1C(=O)N1CCN(C)CC1`, the residual activity was found to be 97.2%.
In the case of `CNc1cc2c(Nc3cccc(Br)c3)ncnc2cn1`, the residual activity stood at 94.1%.
Still for that read-out and setting: the same measure for `Oc1cccc(-c2nc(N3CCOCC3)c3oc4ncccc4c3n2)c1`: 96.1%.

In a further assay the target is DYRK2 (human) (UniProt Q92630). The assay is described as above. The following applies: compound 0.5 µM; ATP 10 µM.
DYRK2 (human), sequence (Q92630 whole entry, looked up): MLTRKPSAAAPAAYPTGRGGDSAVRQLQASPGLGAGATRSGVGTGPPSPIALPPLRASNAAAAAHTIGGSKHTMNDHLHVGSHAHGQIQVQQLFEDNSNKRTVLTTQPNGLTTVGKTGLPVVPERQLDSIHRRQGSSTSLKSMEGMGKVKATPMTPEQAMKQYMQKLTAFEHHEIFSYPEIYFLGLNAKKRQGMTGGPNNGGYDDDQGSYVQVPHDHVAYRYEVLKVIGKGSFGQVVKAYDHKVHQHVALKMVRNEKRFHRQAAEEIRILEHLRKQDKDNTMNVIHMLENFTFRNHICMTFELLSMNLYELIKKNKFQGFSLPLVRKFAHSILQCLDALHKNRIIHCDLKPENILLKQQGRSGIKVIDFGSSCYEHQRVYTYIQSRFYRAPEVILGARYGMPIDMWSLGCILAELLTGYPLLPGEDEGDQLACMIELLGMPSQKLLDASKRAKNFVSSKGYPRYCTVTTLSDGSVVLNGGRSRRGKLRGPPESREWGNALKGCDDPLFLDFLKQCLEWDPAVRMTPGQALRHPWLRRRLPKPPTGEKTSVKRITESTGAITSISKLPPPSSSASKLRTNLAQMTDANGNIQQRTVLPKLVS
For the compound `Cc1[nH]c(/C=C2\C(=O)Nc3ccc(S(=O)(=O)N(C)c4cccc(Cl)c4)cc32)c(C)c1C(=O)N1CCN(C)CC1`, the residual activity came to 101%.
Turning to `CNc1cc2c(Nc3cccc(Br)c3)ncnc2cn1`, the residual activity is 89.9%.
Still for that read-out and setting: the value for `Oc1cccc(-c2nc(N3CCOCC3)c3oc4ncccc4c3n2)c1` was 97.6%.

In another assay the target is EPHA6 (human) (UniProt Q9UF33). The assay is described as above. The following applies: compound 0.5 µM; ATP 10 µM.
On to `Cc1[nH]c(/C=C2\C(=O)Nc3ccc(S(=O)(=O)N(C)c4cccc(Cl)c4)cc32)c(C)c1C(=O)N1CCN(C)CC1`, for which the residual activity was 24%.
Take `CNc1cc2c(Nc3cccc(Br)c3)ncnc2cn1`: the residual activity was 70%.
For `Oc1cccc(-c2nc(N3CCOCC3)c3oc4ncccc4c3n2)c1`, the residual activity turned out to be 79%.

Another assay deals with EPHA8 (human) (UniProt P29322). The assay is described as above. The following applies: compound 0.5 µM; ATP 10 µM.
With `Cc1[nH]c(/C=C2\C(=O)Nc3ccc(S(=O)(=O)N(C)c4cccc(Cl)c4)cc32)c(C)c1C(=O)N1CCN(C)CC1`, the residual activity amounted to 91.7%.
Consider `CNc1cc2c(Nc3cccc(Br)c3)ncnc2cn1`, for which the residual activity worked out at 87.9%.
Regarding `Oc1cccc(-c2nc(N3CCOCC3)c3oc4ncccc4c3n2)c1`, the residual activity amounted to 93.9%.

Another assay has as its target EPHB1 (human) (UniProt P54762). The assay is described as above. The following applies: compound 0.5 µM; ATP 10 µM.
As for `Cc1[nH]c(/C=C2\C(=O)Nc3ccc(S(=O)(=O)N(C)c4cccc(Cl)c4)cc32)c(C)c1C(=O)N1CCN(C)CC1`, the residual activity is 84.5%.
For the compound `CNc1cc2c(Nc3cccc(Br)c3)ncnc2cn1`, the residual activity is 90.2%.
Same read-out and setting: the same measure for `Oc1cccc(-c2nc(N3CCOCC3)c3oc4ncccc4c3n2)c1`: 89.6%.

The next assay concerns the target EPHB4 (human) (UniProt P54760). The assay is described as above. The following applies: compound 0.5 µM; ATP 10 µM.
For `Cc1[nH]c(/C=C2\C(=O)Nc3ccc(S(=O)(=O)N(C)c4cccc(Cl)c4)cc32)c(C)c1C(=O)N1CCN(C)CC1`, the residual activity worked out at 95.4%.
Still for that read-out and setting: the value for `CNc1cc2c(Nc3cccc(Br)c3)ncnc2cn1` was 99.6%; that for `Oc1cccc(-c2nc(N3CCOCC3)c3oc4ncccc4c3n2)c1` was 104%.

Another assay addresses FER (human) (UniProt P16591). Described as above. The following applies: compound 0.5 µM; ATP 10 µM.
Regarding `Cc1[nH]c(/C=C2\C(=O)Nc3ccc(S(=O)(=O)N(C)c4cccc(Cl)c4)cc32)c(C)c1C(=O)N1CCN(C)CC1`, the residual activity was 81%.
With `CNc1cc2c(Nc3cccc(Br)c3)ncnc2cn1`, the residual activity was found to be 97.1%.
Same read-out and setting: the value for `Oc1cccc(-c2nc(N3CCOCC3)c3oc4ncccc4c3n2)c1` was 97.8%.

For a further assay, the target named is FGR (human) (UniProt P09769). Described as above. The following applies: compound 0.5 µM; ATP 10 µM.
With `Cc1[nH]c(/C=C2\C(=O)Nc3ccc(S(=O)(=O)N(C)c4cccc(Cl)c4)cc32)c(C)c1C(=O)N1CCN(C)CC1`, the residual activity is 39.2%.
Still for that read-out and setting: the same measure for `CNc1cc2c(Nc3cccc(Br)c3)ncnc2cn1`: 88.3%.
As for `Oc1cccc(-c2nc(N3CCOCC3)c3oc4ncccc4c3n2)c1`, the residual activity was 94.8%.

In another assay the target is HCK (human) (UniProt P08631). The assay is described as above. The following applies: compound 0.5 µM; ATP 10 µM.
HCK (human), sequence (P08631 whole entry, looked up): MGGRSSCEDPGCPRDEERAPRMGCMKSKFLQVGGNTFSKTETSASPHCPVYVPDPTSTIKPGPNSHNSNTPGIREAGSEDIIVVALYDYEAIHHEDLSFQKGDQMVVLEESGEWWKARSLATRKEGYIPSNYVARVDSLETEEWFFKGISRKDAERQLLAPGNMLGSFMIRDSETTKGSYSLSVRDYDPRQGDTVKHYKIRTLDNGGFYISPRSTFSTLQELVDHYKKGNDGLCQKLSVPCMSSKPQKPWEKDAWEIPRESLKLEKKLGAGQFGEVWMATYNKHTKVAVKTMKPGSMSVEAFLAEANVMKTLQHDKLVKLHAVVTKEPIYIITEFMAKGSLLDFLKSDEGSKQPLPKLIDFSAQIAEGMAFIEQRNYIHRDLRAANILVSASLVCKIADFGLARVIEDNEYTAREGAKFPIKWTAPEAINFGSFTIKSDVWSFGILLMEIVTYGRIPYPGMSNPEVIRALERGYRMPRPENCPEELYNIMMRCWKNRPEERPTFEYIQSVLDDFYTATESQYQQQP
Turning to `Cc1[nH]c(/C=C2\C(=O)Nc3ccc(S(=O)(=O)N(C)c4cccc(Cl)c4)cc32)c(C)c1C(=O)N1CCN(C)CC1`, the residual activity stood at 63.5%.
With `CNc1cc2c(Nc3cccc(Br)c3)ncnc2cn1`, the residual activity stood at 84.5%.
Same read-out and setting: the same measure for `Oc1cccc(-c2nc(N3CCOCC3)c3oc4ncccc4c3n2)c1`: 91.9%.

A further assay deals with HIPK2 (human) (UniProt Q9H2X6). The assay is described as above. The following applies: compound 0.5 µM; ATP 10 µM.
Regarding `Cc1[nH]c(/C=C2\C(=O)Nc3ccc(S(=O)(=O)N(C)c4cccc(Cl)c4)cc32)c(C)c1C(=O)N1CCN(C)CC1`, the residual activity is 105%.
Still for that read-out and setting: the same measure for `CNc1cc2c(Nc3cccc(Br)c3)ncnc2cn1`: 98.4%.
The same measure, in the same setting: the value for `Oc1cccc(-c2nc(N3CCOCC3)c3oc4ncccc4c3n2)c1` was 102%.

For another assay, the target named is IKBKB (human) (UniProt O14920). The assay is described as above. The following applies: compound 0.5 µM; ATP 10 µM.
IKBKB (human), sequence (O14920 whole entry, looked up): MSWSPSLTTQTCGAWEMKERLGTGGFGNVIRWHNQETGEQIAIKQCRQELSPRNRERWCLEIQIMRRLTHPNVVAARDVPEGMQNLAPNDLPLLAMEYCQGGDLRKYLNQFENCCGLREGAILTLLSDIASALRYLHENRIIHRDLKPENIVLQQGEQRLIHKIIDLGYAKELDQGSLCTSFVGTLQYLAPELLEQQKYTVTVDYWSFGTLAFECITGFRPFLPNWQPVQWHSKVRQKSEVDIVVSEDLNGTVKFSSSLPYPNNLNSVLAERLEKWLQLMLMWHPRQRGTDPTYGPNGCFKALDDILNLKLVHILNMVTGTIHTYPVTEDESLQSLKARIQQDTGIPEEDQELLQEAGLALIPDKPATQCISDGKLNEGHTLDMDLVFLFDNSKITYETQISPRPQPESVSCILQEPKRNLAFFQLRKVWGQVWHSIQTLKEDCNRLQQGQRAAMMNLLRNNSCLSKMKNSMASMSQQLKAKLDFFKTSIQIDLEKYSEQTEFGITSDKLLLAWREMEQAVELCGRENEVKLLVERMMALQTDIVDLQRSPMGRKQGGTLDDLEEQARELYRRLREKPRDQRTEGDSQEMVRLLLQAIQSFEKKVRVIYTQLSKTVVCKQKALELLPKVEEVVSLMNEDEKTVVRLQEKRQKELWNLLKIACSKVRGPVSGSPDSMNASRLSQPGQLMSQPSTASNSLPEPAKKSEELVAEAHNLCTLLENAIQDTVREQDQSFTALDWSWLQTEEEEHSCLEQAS
As for `Cc1[nH]c(/C=C2\C(=O)Nc3ccc(S(=O)(=O)N(C)c4cccc(Cl)c4)cc32)c(C)c1C(=O)N1CCN(C)CC1`, the residual activity came to 107%.
Still for that read-out and setting: the same measure for `CNc1cc2c(Nc3cccc(Br)c3)ncnc2cn1`: 98.2%.
On the same count and under the same terms, the same measure for `Oc1cccc(-c2nc(N3CCOCC3)c3oc4ncccc4c3n2)c1`: 98.3%.

Another assay addresses INSR (human) (UniProt P06213). The description is as above. The following applies: compound 0.5 µM; ATP 10 µM.
Consider `Cc1[nH]c(/C=C2\C(=O)Nc3ccc(S(=O)(=O)N(C)c4cccc(Cl)c4)cc32)c(C)c1C(=O)N1CCN(C)CC1`, for which the residual activity came out at 98.8%.
On the same count and under the same terms, the same measure for `CNc1cc2c(Nc3cccc(Br)c3)ncnc2cn1`: 100%.
Same read-out and setting: the same measure for `Oc1cccc(-c2nc(N3CCOCC3)c3oc4ncccc4c3n2)c1`: 98.6%.

The next assay addresses MAP2K2 (human) (UniProt P36507). Described as above. The following applies: compound 0.5 µM; ATP 10 µM.
As to `Cc1[nH]c(/C=C2\C(=O)Nc3ccc(S(=O)(=O)N(C)c4cccc(Cl)c4)cc32)c(C)c1C(=O)N1CCN(C)CC1`, the residual activity is 99.5%.
The same measure, in the same setting: the same measure for `CNc1cc2c(Nc3cccc(Br)c3)ncnc2cn1`: 90.4%.
Same read-out and setting: the value for `Oc1cccc(-c2nc(N3CCOCC3)c3oc4ncccc4c3n2)c1` was 85%.
